# Reference: patent US9403763B2, “CD4-mimetic inhibitors of HIV-1 entry and methods of use thereof” (priority 2011, dated 2016)
# “Also recorded” adds a separate entry of the source. Structures can show the parent of a compound that is named as a salt. Where two headings read alike, the source gives them in different places.
# Columns and labels:
# [1] = test system: clade C Env-pseudoviruses; assay: Neutralization of Env-pseudoviruses in TZM-bl cells, clade C; type: cell-based, HIV-1; settings: for neutralization breadth: clade C
# Experimental: (§1) HIV-1 Env-pseudoviruses were prepared by transfecting 293T cells with 10 μg of rev/env expression plasmid and 30 μg of an env-deficient HIV-1 backbone vector (pSG3Δenv), using Fugene 6 transfection reagents (Invitrogen). Pseudovirus-containing culture supernatants were harvested two days after transfection, filtered (0.45 μm), and stored at −80° C. or in the vapor phase of liquid nitrogen. Neutralization was measured using HIV-1 Env-pseudoviruses to infect TZM-b1 cells as described previously (Li et al., 2005; Li et al., 2006; Seaman et al., 2010; Wu et al., 2009) with minor modifications. Briefly, the test reagent (DMJ-I-228, NBD556, or CD4-Ig) were diluted in complete media containing 10% DMSO. Then 40 μL of virus was added to 10 μL of serial diluted test reagent in duplicate wells of a 96-well flat bottom culture plate, and the virus-reagent mix was incubated for 30 min at 37° C. To keep assay conditions constant, sham media containing 10% DMSO was used in place of test reagent in specified control wells. The virus input was set at a multiplicity of infection of approximately 0.01-0.1, which generally results in 100,000 to 400,000 relative light units (RLU) in a luciferase assay (Promega, Madison, Wis.). The test reagent concentrations were defined at the point of incubation with virus supernatant. Neutralization curves were fit by nonlinear regression using a 5-parameter hill slope equation as previously described (Seaman et al., 2010).
# (§2) To assess further the HIV-1 neutralization breadth and potency, we assayed 1, (+)-3, (+)-4 against 42 diverse strains of clades B and C Env-pseudoviruses (data not shown).
# [2] = target: T1, gp120 from the YU2 strain (Human immunodeficiency virus type 1 group M subtype B, UniProt P35961); assay: biochemical; type: binding, HIV-1
# Experimental: (§3) The calorimetric cell (approximately 1.4 mL), containing gp120 from the YU2 strain dissolved in PBS (Roche Diagnostics GmbH, Mannheim, Germany), pH 7.4 with 2% DMSO, was titrated with the different inhibitors dissolved in the same buffer.
# Analogue binding to full-length gp120 from the YU2 strain was next characterized by isothermal titration calorimetry to assess the enthalpic and entropic contributions to binding affinity (FIG. 7 and FIG. 3c). […] Schön, A. et al. Biochemistry 45, 10973-80 (2006). […] Schön, A. et al. Chem Biol Drug Des: 77, 161-165 (2011).
# Isothermal titration calorimetric experiments were performed using a high-precision VP-ITC titration calorimetric system from MicroCal LLC. (Northampton, Mass.). The calorimetric cell (˜1.4 mL), containing gp120 at a concentration of about 2 μM dissolved in PBS, pH 7.4 (Roche Diagnostics GmbH), with 2% DMSO, was titrated with the different compounds dissolved in the same buffer at concentrations of 80-130 μM. The compound solution was added in aliquots of 10 μL at pre-set intervals. All solutions were degassed to avoid any formation of bubbles in the calorimeter during stirring. All experiments were performed at 25° C. The heat evolved upon injection of compound was obtained from the integral of the calorimetric signal. The heat associated with the binding reaction was obtained by subtracting the heat of dilution from the heat of reaction. The individual binding heats were plotted against the molar ratio, and the values for the enthalpy change (ΔH) and association constant, Ka (Kd=1/Ka), were obtained by nonlinear regression of the data.
# [3] = test system: clade B Env-pseudoviruses; assay: Neutralization of Env-pseudoviruses in TZM-bl cells, clade B; type: cell-based, HIV-1; settings: for neutralization breadth: clade B
# Experimental: as §1, §2
# HIV-1YU2 virus = assay: Single-round infection of Cf2Th-CD4/CCR5 cells by luciferase-expressing HIV-1YU2 virus; type: cell-based; settings: for inhibition of entry of YU2 and ADA viruses: CD4- and CCR5-expressing cells
# Experimental: as §3
# (§4) Compounds were dissolved in dimethyl sulfoxide (DMSO), and stored at 10 mM concentrations at −20° C. The compounds were diluted in Dulbecco Modified Eagle Medium (DMEM, Invitrogen) to create 1 mM solutions before use. Soluble CD4 (sCD4) was purchased from ImmunoDiagnostics (Woburn, Mass.). Human 293T embryonic kidney and canine Cf2Th thymocytes (ATCC) were grown at 37° C. and 5% CO2 in DMEM (Invitrogen) containing 10% fetal bovine serum (Sigma) and 100 μg/mL of penicillin-streptomycin (Meditech, Inc.). Cf2Th cells stably expressing human CD4 and either CCR5 or CXCR4 (Babcock et al., 2001, Mirzabekov et al., 1999) were grown in medium supplemented with 0.4 mg/mL of G418 (Invitrogen) and 0.20 mg/mL of hygromycin B (Roche Diagnostics). Using the Effectene transfection reagent (Qiagen), 293T human embryonic kidney cells were cotransfected with plasmids expressing the pCMVΔP1ΔenvpA HIV-1 Gag-Pol packaging construct, the wild-type or mutant HIV-1YU2 envelope glycoproteins or the envelope glycoproteins of the control amphotropic murine leukemia virus (A-MLV), and the firefly luciferase-expressing vector at a DNA ratio of 1:1:3 μg. For the production of viruses pseudotyped with the A-MLV glycoprotein, a rev-expressing plasmid was added. The single-round, replication-defective viruses in the supernatants were harvested 24-30 hours after transfection, filtered (0.45 μm), aliquoted, and frozen at −80° C. until further use. The reverse transcriptase (RT) activities of all viruses were measured as described previously (Rho et al., 1981).
# (§5) Cf2Th/CD4-CCR5 or Cf2Th/CD4-CXCR4 target cells were seeded at a density of 6×10^3 cells/well in 96-well luminometer-compatible tissue culture plates (Perkin Elmer) 24 h before infection. On the day of infection, (1 to 100 μM) was added to recombinant viruses (10,000 reverse transcriptase units) in a final volume of 50 μL and incubated at 37° C. for 30 minutes. The medium was removed from the target cells, which were then incubated with the virus-drug mixture for 2-4 hours at 37° C. At the end of this time point, complete medium was added to a final volume of 150 μL and incubated for 48 hours at 37° C. The medium was removed from each well, and the cells were lysed with 30 μL of passive lysis buffer (Promega) by three freeze-thaw cycles.
# [4] = test system: amphotropic murine leukemia virus (A-MLV); assay: Specificity control: infection by virus pseudotyped with A-MLV envelope glycoproteins; type: cell-based; settings: for specificity: inhibition of A-MLV entry: either cell type
# Experimental: as §3
# (§6) The recombinant viruses employed were pseudotyped with HIV-1 envelope glycoproteins derived from either an X4, laboratory-adapted HXBc2 isolate, or the R5, primary YU2 isolate. As a control for specificity, the viruses were pseudotyped with the envelope glycoproteins of the amphotropic murine leukemia virus (A-MLV), an unrelated retrovirus.
# as §4, §5
# recombinant HIV-1YU2 = assay: Activation of viral infectivity in CD4-negative Cf2Th-CCR5 cells; type: cell-based; settings: for enhancement of viral infectivity in CD4 deficient cells: YU2, CD4-negative, CCR5-expressing cells
# YU2 S375W virus = assay: Viral inhibition with the cavity filling YU2 mutant S375W; type: cell-based, HIV-1
# Experimental: Then, the capacity of DMJ-I-228 (10) to bind within the Phe43 cavity was assessed by measuring viral inhibition in the context of the cavity filling YU2 mutant S375W.
# [5] = test system: mono-tropic (HXBc2) and dual tropic (89.6 and KB9) viruses; assay: Inhibition of entry on cells co-expressing CD4 and CXCR4; type: cell-based, HIV-1; settings: Human immunodeficiency virus 1, read-out: IC50 of entry inhibition
# Experimental: as §6
# Compounds were dissolved in dimethyl sulfoxide (DMSO), and stored at 10 mM concentrations at −20° C. The compounds were diluted in Dulbecco Modified Eagle Medium (DMEM, Invitrogen) to create 1 mM solutions before use. Soluble CD4 (sCD4) was purchased from ImmunoDiagnostics (Woburn, Mass.). Human 293T embryonic kidney and canine Cf2Th thymocytes (ATCC) were grown at 37° C. and 5% CO2 in DMEM (Invitrogen) containing 10% fetal bovine serum (Sigma) and 100 μg/mL of penicillin-streptomycin (Meditech, Inc.). Cf2Th cells stably expressing human CD4 and either CCR5 or CXCR4 (Babcock et al., 2001, Mirzabekov et al., 1999) were grown in medium supplemented with 0.4 mg/mL of G418 (Invitrogen) and 0.20 mg/mL of hygromycin B (Roche Diagnostics). […] The reverse transcriptase (RT) activities of all viruses were measured as described previously (Rho et al., 1981). […]
# gp120 = gp120 (Human immunodeficiency virus type 1 group M subtype B, UniProt P35961); settings: previously reported, cited from earlier work
# [6] = target: T1, gp120 from the YU2 strain; set-up: species or system HIV-1; settings: from temperature dependence of the binding enthalpy
# [7] = Human immunodeficiency virus 1, TZM-bl, read-out: IC50 GMT
compound,measurement,setting,value
"N=C(N)NC[C@H]1Cc2ccccc2[C@@H]1NC(=O)C(=O)Nc1ccc(Cl)c(F)c1 [(+)-4, (+)-N^1-(4-Chloro-3-fluorophenyl)-N^2-(trans-2-(guanidinomethyl)indan-1-yl)oxalamide formate salt]",IC50,[1]; [7],14 µM
same,neutralization breadth,[1],59%
same,Kd,"[2]; ITC, full-length gp120, read-out: Kd",0.11 µM
same,IC50,[3]; [7],1.7 µM
same,neutralization breadth,[3],100%
same,improvement over (+)-3 based on IC50 titers,[3]; clade B viruses,60%
same,improvement over (+)-3 based on IC80 titers,[3]; clade B viruses,1.5 fold
same,IC50,"HIV-1YU2 virus; Human immunodeficiency virus 1, CCR5, read-out: IC50 of viral entry, YU2",3.1 ± 0.6 µM
N=C(N)N[C@H]1Cc2ccccc2[C@@H]1NC(=O)C(=O)Nc1ccc(Cl)c(F)c1 [DMJ-I-228],neutralization breadth,[1],100%
same,specificity: inhibition of A-MLV entry,[4],did not inhibit A-MLV entry
same,binding affinity compared to TS-II-224 (2),[2]; ITC,comparable affinity
same,enthalpy change ΔH,"[2]; ITC, 25° C.",-14.9 kcal/mol
same,entropy change ΔS,"[2]; ITC, 25° C.",−20 cal/(K×mol)
same,entropy contribution −TΔS,"[2]; ITC, 25° C.",-5.9 kcal/mol
same,Kd,"[2]; ITC, 25° C., read-out: Kd (binding affinity)",0.25 µM
same,enhancement of viral infectivity in CD4 deficient cells,recombinant HIV-1YU2,did not enhance viral infectivity; also recorded: did not enhance entry
same,sensitivity of YU2 S375W virus to compound,YU2 S375W virus,completely resistant
same,IC50,[5],6 to 30 µM
same,neutralization breadth,[3],100%
same,inhibition of entry of YU2 and ADA viruses,HIV-1YU2 virus,inhibited the entry
"O=C(Nc1ccc(Cl)c(F)c1)C(=O)N[C@@H]1c2ccccc2C[C@@H]1O [TK-II-103, N^1-(4-chloro-3-fluorophenyl)-N^2-((1R,2S)-2-hydroxy-2,3-dihydro-1H-inden-1-yl)oxalamide]",specificity: inhibition of A-MLV entry,[4],non-specificity
CC1(C)CC(NC(=O)C(=O)Nc2ccc(Cl)cc2)CC(C)(C)N1 [NBD-556],enthalpy change,gp120; 25° C.,-24.5 kcal/mol
same,"unfavorable entropy change −TΔS, contribution to Gibbs energy",gp120,17.1 kcal/mol
"N[C@@H]1Cc2ccccc2[C@H]1NC(=O)C(=O)Nc1ccc(Cl)c(F)c1 [AWS-I-45, N^1-((1R,2R)-2-amino-2,3-dihydro-1H-inden-1-yl)-N^2-(4-chloro-3-fluorophenyl)oxalamide]",specificity: inhibition of A-MLV entry,[4],non-specificity
same,binding affinity compared to TS-II-224 (2),[2]; ITC,three-fold loss in affinity
N[C@H]1Cc2ccccc2[C@@H]1NC(=O)C(=O)Nc1ccc(Cl)c(F)c1 [AWS-I-50],specificity: inhibition of A-MLV entry,[4],non-specificity
same,binding affinity compared to TS-II-224 (2),[2]; ITC,three-fold loss in affinity
same,entropy contribution −TΔS,"[2]; ITC, 25° C.",-7.6 kcal/mol
CNC(=O)C(NC(=O)C(=O)Nc1ccc(Cl)c(F)c1)c1ccccc1 (centres unmarked),IC50,"[4]; Murine leukemia virus, read-out: IC50 of A-MLV on CD4^+ cells",91.7 µM
same,ΔG,[2]; Example 24 table,-7.6 kcal/mol
same,ΔH,[2]; Example 24 table,-9.2 kcal/mol
same,−TΔS,[2]; Example 24 table,+1.6 kcal/mol
same,Kd,"[2]; Example 24 table, read-out: Kd",2.5 µM
same,Enhancement of viral infection of CD4− cells,recombinant HIV-1YU2; Example 24 table,0.00
same,IC50,"HIV-1YU2 virus; Human immunodeficiency virus 1, Cf2Th-CD4/CCR5, read-out: IC50 of HIV-1 on CD4^+ cells",70 µM
O=C(Nc1ccc(Cl)c(F)c1)C(=O)N[C@H]1c2ccccc2C[C@H]1O [TK-II-52],specificity: inhibition of A-MLV entry,[4],non-specificity
N=C(N)N[C@@H]1Cc2ccccc2[C@H]1NC(=O)C(=O)Nc1ccc(Cl)c(F)c1 [AWS-I-169],neutralization breadth,[1],100%
same,specificity: inhibition of A-MLV entry,[4],did not inhibit A-MLV entry
same,binding affinity compared to TS-II-224 (2),[2]; ITC,comparable affinity
same,enthalpy change ΔH,"[2]; ITC, 25° C.",-19.4 kcal/mol
same,entropy contribution −TΔS,"[2]; ITC, 25° C.",-10.4 kcal/mol
same,enhancement of viral infectivity in CD4 deficient cells,recombinant HIV-1YU2,did not enhance viral infectivity; also recorded: did not enhance entry
same,change in heat capacity,[6],−817±15 cal/(K×mol)
same,sensitivity of YU2 S375W virus to compound,YU2 S375W virus,completely resistant
same,IC50,[5],6 to 30 µM
same,neutralization breadth,[3],100%
same,inhibition of entry of YU2 and ADA viruses,HIV-1YU2 virus,inhibited the entry
